Laboratory results as given in patent US10953015B2, “Use of adenosine receptor signaling to regulate P-gp function” (CORNELL UNIVERSITY, priority 2016, dated 2021).

Assays:
[1] = system: P-gp; assay: Western blot of P-gp expression in primary human brain endothelial cells; assay type: cell-based; settings: 1 μM, up to 72 hours
Description: (§1) HCMEC-D3 and HBMVEC cells were plated in 12-well plates and were grown until they reached 100% confluency. The media was replaced with fresh media containing 1 μM of Lexiscan® or NECA with proper vehicle control (DMSO) for up to 72 hours. Cells were lysed by lysis buffer […] containing protease inhibitor cocktail and stored for later use (−70° C.). For cytoskeletal fraction analysis, cells were lysed in CSK buffer (100 mM NaCl, 300 mM sucrose, 3 mM MgCl2, 10 mM PIPES, pH 6.8). For brain samples, half of the brain was homogenized and lysed with […] lysis buffer and centrifuged at 17,000 g for 20 minutes and 1:10 diluted samples were used for analysis. Sample was loaded on 7% SDS PAGE at 100 V for 1 hour and transferred to the nitrocellulose paper. It was blocked with 1% BSA and incubated with anti-P-gp antibody (Genetex, 1:2000) overnight. Subsequently, it was washed with TBST and incubated with anti-rabbit secondary antibody (1:2000) for 1 hour. It was washed with TBST and developed with ECL substrate and exposed to x-ray film. Anti-GAPDH or −β-actin antibody was used as loading control. The intensity of band was analyzed with densitometric analysis and plotted as a graph for analysis of time-course effect of AR signaling on P-gp expression.

[2] = system: P-gp; assay: Western blot of P-gp expression in MCF7 breast cancer cells; assay type: cell-based, human; settings: 1 μM, 24, 48, 72 hours
Description: MCF7 cells (human breast cancer cell line) were cultured in 24 well plates until they reached confluency. FIGS. 17A-17C are images of western blots of cells treated with vehicle control (i.e., DMSO) (“D”) or 1 μM of the broad spectrum AR agonist NECA (“N”) (FIG. 17A), 1 μM of the A2A AR agonist Lexiscan® (“L”) (FIG. 17B), or 1 μM of the A2B AR agonist BAY60 (“B”) (FIG. 17C), respectively for 24, 48, 72 hours. Cells were lysed with lysis buffer and expression levels of P-gp, MMP9, or VEGF analyzed by western blot. GAPDH was used as loading a control. FIG. 17D is a graph of experimental results showing that Lexiscan® down-regulates P-gp expression in MCF7 breast cancer cells. MCF7 breast cancer cells were treated with Lex (0.25 μM) concomitant with Rhodamine 123 (“Rho123”). […] Students T test, P<0.001. […] FIG. 17E is a fluorescence microscopy image showing MCF7 breast cancer cells grown on coverslips and treated with vehicle (DMSO, control), or A2 AR agonists, Lexiscan® (1 μM) or A1193 (1 μM) for 15 minutes in the presence of epirubicin. Cells were stained with an antibody to P-gp and mounted with DAPI. FIG. 17F is a graph of the fluorescent intensity quantified from FIG. 17E by measuring the mean fluorescent intensity (“MFI”) of epirubicin (pink) that is present in cell nuclei. ***=P<0.0001.

[3] = system: P-gp; assay: Western blot of P-gp expression in primary mouse brain endothelial cells; assay type: cell-based; settings: 1 μM, up to 72 hours
Description: Mice were sacrificed and meninges of brain were removed and ground using a plunger and centrifuged at 3,000 g for 5 minutes. The obtained pellet was dissolved in 18% dextran and centrifuged at 10,000 g for 10 minutes and digested with DMEM containing collagenase, DNAse, and dispase at 37° C. for 75 minutes. The sample was centrifuged for 5 minutes at 3,200 g, and the pellet was washed with warm PBS. The pellet was resuspended in DMEM/F12 with puromycin, heparin, 20% PDS, and 1-glutamine and plated onto the proper plate.
as §1, with “Sample was loaded on 7% SDS PAGE at 100 V for 1 hour and transferred to the nitrocellulose paper. It was blocked with 1% BSA and incubated with anti-P-gp antibody (Genetex, 1:2000) overnight. Subsequently, it was washed with TBST and incubated with anti-rabbit secondary antibody (1:2000) for 1 hour. It was washed with TBST and developed with ECL substrate and exposed to x-ray film. Anti-GAPDH or −β-actin antibody was used as loading control.” left out

[4] = system: P-gp; assay: Western blot of P-gp expression in HCMEC-D3 cells; assay type: cell-based, human; settings: 1 μM, up to 72 hours
Description: as §1

Compound	P-gp expression (western blot, vs DMSO control) [1]	P-gp expression (western blot) [2]	P-gp expression (western blot, normalized to GAPDH) [3]	P-gp expression (western blot, vs DMSO control) [4]
CNC(=O)c1cnn(-c2nc(N)c3ncn([C@@H]4O[C@H](CO)[C@@H](O)[C@H]4O)c3n2)c1 [Lexiscan®, 1-[6-amino-9-[(2R,3R,4S,5R)-3,4-dihydroxy-5-(hydroxymethyl)oxolan-2-yl]purin-2-yl]-N-methylpyrazole-4-carboxamide]	rapid down-modulation of P-gp expression, which began to decrease at 15 minutes and was maintained at a decreased level for up to 4 hours	decreased P-gp expression in cultured MCF7 cells at 48 and 72 hour time points	rapid down-modulation of P-gp beginning at 30 minutes, which was maintained for up to 1 hour	rapid decrease in P-gp expression beginning at 30 minutes, which was maintained for up to 1 hour
CCNC(=O)[C@H]1O[C@@H](n2cnc3c(N)ncnc32)[C@H](O)[C@@H]1O [NECA, (2S,3S,4R,5R)-5-(6-aminopurin-9-yl)-N-ethyl-3,4-dihydroxyoxolane-2-carboxamide]	began to decrease at 30 minutes and was maintained for up to 48 hours and recovered by 72 hours	decreased P-gp expression in cultured MCF7 cells at 48 and 72 hour time points	P-gp expression decreased very rapidly and remained down-modulated for up to 4 hours	decreased P-gp expression for up to 4 hours
